What was measured:
Experiment in all cases: Kinase Hotspot radiolabel assay
Assay type in all cases: biochemical
Details in all cases: read-out: % Residual Activity
ALK2/ACVR1 = molecular target: T1, ALK2/ACVR1 (Homo sapiens, UniProt Q04771)
T1 construct: purchased Reaction Biology Corporation (Kinase HotSpot)
Summary of the method: (§1)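 Step one: screen at 1 µM across 369 kinases (Hotspot, radiolabel detection). Step two: Ki determination for kinases with >90% inhibition.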

Aurora A = molecular target: T2, Aurora A (Homo sapiens, UniProt O14965)
T2 construct: purchased Reaction Biology Corporation (Kinase HotSpot)
Summary of the method: as §1

CDK4/cyclin D1 = molecular target: T3, CDK4/cyclin D1 (Homo sapiens, UniProt P11802)
T3 construct: purchased Reaction Biology Corporation (Kinase HotSpot)
Summary of the method: as §1

CDK5/p35 = molecular target: T4, CDK5/p35 (Homo sapiens, UniProt Q00535)
T4 construct: purchased Reaction Biology Corporation (Kinase HotSpot)
Summary of the method: as §1

CHK1 = molecular target: T5, CHK1 (Homo sapiens, UniProt O14757)
T5 construct: purchased Reaction Biology Corporation (Kinase HotSpot)
Summary of the method: as §1

CLK3 = molecular target: T6, CLK3 (Homo sapiens, UniProt P49761)
T6 construct: purchased Reaction Biology Corporation (Kinase HotSpot)
Summary of the method: as §1

EPHA4 = molecular target: T7, EPHA4 (Homo sapiens, UniProt P54764)
T7 construct: purchased Reaction Biology Corporation (Kinase HotSpot)
Summary of the method: as §1

ERBB2/HER2 = molecular target: T8, ERBB2/HER2 (Homo sapiens, UniProt P04626)
T8 construct: purchased Reaction Biology Corporation (Kinase HotSpot)
Summary of the method: as §1

FGFR1 = molecular target: T9, FGFR1 (Homo sapiens, UniProt P11362)
T9 construct: purchased Reaction Biology Corporation (Kinase HotSpot)
Summary of the method: as §1

FLT3 = molecular target: T10, FLT3 (Homo sapiens, UniProt P36888)
T10 construct: purchased Reaction Biology Corporation (Kinase HotSpot)
Summary of the method: as §1

IRR/INSRR = molecular target: T11, IRR/INSRR (Homo sapiens, UniProt P14616)
T11 construct: purchased Reaction Biology Corporation (Kinase HotSpot)
Summary of the method: as §1

KSR1 = molecular target: T12, KSR1 (Homo sapiens, UniProt Q8IVT5)
T12 construct: purchased Reaction Biology Corporation (Kinase HotSpot)
Summary of the method: as §1

MARK3 = molecular target: T13, MARK3 (Homo sapiens, UniProt P27448)
T13 construct: purchased Reaction Biology Corporation (Kinase HotSpot)
Summary of the method: as §1

MSK1/RPS6KA5 = molecular target: T14, MSK1/RPS6KA5 (Homo sapiens, UniProt O75582)
T14 construct: purchased Reaction Biology Corporation (Kinase HotSpot)
Summary of the method: as §1

MST2/STK3 = molecular target: T15, MST2/STK3 (Homo sapiens, UniProt Q13188)
T15 construct: purchased Reaction Biology Corporation (Kinase HotSpot)
Summary of the method: as §1

NEK11 = molecular target: T16, NEK11 (Homo sapiens, UniProt Q8NG66)
T16 construct: purchased Reaction Biology Corporation (Kinase HotSpot)
Summary of the method: as §1

NEK6 = molecular target: T17, NEK6 (Homo sapiens, UniProt Q9HC98)
T17 construct: purchased Reaction Biology Corporation (Kinase HotSpot)
Summary of the method: as §1

PAK2 = molecular target: T18, PAK2 (Homo sapiens, UniProt Q13177)
T18 construct: purchased Reaction Biology Corporation (Kinase HotSpot)
Summary of the method: as §1

PAK6 = molecular target: T19, PAK6 (Homo sapiens, UniProt Q9NQU5)
T19 construct: purchased Reaction Biology Corporation (Kinase HotSpot)
Summary of the method: as §1

RIPK5 = molecular target: T20, RIPK5 (Homo sapiens, UniProt Q6XUX3)
T20 construct: purchased Reaction Biology Corporation (Kinase HotSpot)
Summary of the method: as §1

RSK3 = molecular target: T21, RSK3 (Homo sapiens, UniProt Q15349)
T21 construct: purchased Reaction Biology Corporation (Kinase HotSpot)
Summary of the method: as §1

SGK1 = molecular target: T22, SGK1 (Homo sapiens, UniProt O00141)
T22 construct: purchased Reaction Biology Corporation (Kinase HotSpot)
Summary of the method: as §1

SLK/STK2 = molecular target: T23, SLK/STK2 (Homo sapiens, UniProt Q9H2G2)
T23 construct: purchased Reaction Biology Corporation (Kinase HotSpot)
Summary of the method: as §1

SRPK1 = molecular target: T24, SRPK1 (Homo sapiens, UniProt Q96SB4)
T24 construct: purchased Reaction Biology Corporation (Kinase HotSpot)
Summary of the method: as §1

SSTK/TSSK6 = molecular target: T25, SSTK/TSSK6 (Homo sapiens, UniProt Q9BXA6)
T25 construct: purchased Reaction Biology Corporation (Kinase HotSpot)
Summary of the method: as §1

STK22D/TSSK1 = molecular target: T26, STK22D/TSSK1 (Homo sapiens, UniProt Q9BXA7)
T26 construct: purchased Reaction Biology Corporation (Kinase HotSpot)
Summary of the method: as §1

STK25/YSK1 = molecular target: T27, STK25/YSK1 (Homo sapiens, UniProt O00506)
T27 construct: purchased Reaction Biology Corporation (Kinase HotSpot)
Summary of the method: as §1

TLK2 = molecular target: T28, TLK2 (Homo sapiens, UniProt Q86UE8)
T28 construct: purchased Reaction Biology Corporation (Kinase HotSpot)
Summary of the method: as §1

TNIK = molecular target: T29, TNIK (Homo sapiens, UniProt Q9UKE5)
T29 construct: purchased Reaction Biology Corporation (Kinase HotSpot)
Summary of the method: as §1

TRKB = molecular target: T30, TRKB (Homo sapiens, UniProt Q16620)
T30 construct: purchased Reaction Biology Corporation (Kinase HotSpot)
Summary of the method: as §1

T21 sequence (Q15349 whole entry): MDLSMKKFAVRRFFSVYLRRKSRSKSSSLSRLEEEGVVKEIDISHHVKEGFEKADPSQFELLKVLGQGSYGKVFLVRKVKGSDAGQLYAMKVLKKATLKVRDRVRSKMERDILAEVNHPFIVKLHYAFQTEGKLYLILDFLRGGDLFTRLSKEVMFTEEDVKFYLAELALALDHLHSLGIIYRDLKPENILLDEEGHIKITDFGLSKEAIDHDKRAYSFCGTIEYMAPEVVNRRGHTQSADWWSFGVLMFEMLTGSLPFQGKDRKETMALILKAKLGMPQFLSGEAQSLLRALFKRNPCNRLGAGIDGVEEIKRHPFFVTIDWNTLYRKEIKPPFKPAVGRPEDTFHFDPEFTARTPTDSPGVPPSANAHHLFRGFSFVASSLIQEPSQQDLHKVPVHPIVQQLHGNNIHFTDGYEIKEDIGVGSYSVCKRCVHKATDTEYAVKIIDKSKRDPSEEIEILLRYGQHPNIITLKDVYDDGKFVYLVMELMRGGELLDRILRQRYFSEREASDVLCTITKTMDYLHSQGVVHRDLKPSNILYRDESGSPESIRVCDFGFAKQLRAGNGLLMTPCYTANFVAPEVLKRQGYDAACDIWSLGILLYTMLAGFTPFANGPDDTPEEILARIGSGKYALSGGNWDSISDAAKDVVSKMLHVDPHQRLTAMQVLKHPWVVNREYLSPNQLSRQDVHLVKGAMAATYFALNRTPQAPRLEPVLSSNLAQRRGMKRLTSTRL
T17 sequence (Q9HC98 whole entry): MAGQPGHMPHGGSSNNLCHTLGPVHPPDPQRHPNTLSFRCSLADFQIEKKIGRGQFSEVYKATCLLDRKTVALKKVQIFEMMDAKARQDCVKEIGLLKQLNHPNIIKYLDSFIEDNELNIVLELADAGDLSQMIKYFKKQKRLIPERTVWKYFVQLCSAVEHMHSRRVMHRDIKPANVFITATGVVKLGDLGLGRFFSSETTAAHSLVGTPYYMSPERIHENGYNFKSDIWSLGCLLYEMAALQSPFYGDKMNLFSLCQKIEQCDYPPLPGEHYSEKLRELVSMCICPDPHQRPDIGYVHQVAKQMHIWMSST
T15 sequence (Q13188 whole entry): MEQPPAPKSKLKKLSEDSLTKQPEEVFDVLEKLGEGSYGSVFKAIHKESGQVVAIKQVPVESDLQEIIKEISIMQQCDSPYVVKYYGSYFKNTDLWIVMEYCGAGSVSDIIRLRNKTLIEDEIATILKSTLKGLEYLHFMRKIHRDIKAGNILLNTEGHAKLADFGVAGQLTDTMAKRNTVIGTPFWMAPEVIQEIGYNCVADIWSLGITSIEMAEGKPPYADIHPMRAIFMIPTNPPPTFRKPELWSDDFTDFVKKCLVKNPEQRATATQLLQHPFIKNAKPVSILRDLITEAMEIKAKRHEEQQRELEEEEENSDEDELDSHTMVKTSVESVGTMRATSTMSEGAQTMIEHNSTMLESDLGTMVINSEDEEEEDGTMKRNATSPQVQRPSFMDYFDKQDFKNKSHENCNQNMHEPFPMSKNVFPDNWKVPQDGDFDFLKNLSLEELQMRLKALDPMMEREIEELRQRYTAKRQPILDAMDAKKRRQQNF
T10 sequence (P36888 27-993): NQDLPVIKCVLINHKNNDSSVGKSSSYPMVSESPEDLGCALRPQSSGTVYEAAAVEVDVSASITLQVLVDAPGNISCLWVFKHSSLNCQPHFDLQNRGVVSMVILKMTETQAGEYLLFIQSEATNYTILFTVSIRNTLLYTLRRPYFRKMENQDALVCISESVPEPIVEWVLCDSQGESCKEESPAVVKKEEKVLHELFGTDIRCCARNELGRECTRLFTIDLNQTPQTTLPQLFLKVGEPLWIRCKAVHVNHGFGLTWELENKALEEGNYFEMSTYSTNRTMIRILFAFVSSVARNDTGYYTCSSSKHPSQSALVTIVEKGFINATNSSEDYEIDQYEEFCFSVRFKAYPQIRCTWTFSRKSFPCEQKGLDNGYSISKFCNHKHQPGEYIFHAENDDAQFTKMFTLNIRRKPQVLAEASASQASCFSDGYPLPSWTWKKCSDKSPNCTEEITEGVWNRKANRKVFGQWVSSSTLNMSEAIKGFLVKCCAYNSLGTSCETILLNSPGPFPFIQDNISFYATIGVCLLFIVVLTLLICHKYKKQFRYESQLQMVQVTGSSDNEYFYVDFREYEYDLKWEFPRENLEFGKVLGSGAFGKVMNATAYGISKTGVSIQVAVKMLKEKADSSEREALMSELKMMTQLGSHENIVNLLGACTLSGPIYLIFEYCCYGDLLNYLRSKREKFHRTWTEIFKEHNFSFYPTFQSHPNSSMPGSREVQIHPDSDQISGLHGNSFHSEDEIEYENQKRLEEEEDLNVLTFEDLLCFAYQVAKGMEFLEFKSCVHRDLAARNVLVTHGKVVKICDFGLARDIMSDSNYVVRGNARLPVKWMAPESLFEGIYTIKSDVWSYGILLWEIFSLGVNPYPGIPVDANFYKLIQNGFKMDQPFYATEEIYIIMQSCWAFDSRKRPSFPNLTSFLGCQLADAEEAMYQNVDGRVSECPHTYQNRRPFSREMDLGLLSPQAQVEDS
T25 sequence (Q9BXA6 whole entry): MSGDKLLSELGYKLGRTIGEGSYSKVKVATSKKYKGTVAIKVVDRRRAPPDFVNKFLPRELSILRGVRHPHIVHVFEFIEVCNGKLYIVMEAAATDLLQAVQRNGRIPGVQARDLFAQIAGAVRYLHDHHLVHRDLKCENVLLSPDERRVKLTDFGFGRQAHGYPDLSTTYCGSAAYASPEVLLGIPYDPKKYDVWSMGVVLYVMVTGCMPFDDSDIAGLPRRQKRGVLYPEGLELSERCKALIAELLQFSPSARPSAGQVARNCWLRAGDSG
T19 sequence (Q9NQU5 whole entry): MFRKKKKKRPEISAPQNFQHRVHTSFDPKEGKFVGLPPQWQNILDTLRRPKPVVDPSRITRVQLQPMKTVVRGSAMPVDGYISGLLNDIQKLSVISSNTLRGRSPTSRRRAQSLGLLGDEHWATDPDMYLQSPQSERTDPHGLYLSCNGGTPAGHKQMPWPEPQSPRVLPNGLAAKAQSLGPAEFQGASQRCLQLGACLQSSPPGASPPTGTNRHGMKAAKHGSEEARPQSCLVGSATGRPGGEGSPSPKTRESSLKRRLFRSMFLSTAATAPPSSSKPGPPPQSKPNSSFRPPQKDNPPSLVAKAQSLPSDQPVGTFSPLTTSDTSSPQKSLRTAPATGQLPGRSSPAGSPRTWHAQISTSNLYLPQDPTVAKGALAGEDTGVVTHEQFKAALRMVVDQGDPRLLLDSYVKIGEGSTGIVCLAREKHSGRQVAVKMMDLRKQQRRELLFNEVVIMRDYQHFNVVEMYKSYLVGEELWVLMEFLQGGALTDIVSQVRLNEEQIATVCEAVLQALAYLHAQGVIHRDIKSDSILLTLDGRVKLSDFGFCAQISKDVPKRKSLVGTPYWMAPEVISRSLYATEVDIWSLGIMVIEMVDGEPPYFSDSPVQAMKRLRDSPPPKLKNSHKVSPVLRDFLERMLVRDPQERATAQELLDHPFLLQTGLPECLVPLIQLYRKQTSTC
T7 sequence (P54764 20-986): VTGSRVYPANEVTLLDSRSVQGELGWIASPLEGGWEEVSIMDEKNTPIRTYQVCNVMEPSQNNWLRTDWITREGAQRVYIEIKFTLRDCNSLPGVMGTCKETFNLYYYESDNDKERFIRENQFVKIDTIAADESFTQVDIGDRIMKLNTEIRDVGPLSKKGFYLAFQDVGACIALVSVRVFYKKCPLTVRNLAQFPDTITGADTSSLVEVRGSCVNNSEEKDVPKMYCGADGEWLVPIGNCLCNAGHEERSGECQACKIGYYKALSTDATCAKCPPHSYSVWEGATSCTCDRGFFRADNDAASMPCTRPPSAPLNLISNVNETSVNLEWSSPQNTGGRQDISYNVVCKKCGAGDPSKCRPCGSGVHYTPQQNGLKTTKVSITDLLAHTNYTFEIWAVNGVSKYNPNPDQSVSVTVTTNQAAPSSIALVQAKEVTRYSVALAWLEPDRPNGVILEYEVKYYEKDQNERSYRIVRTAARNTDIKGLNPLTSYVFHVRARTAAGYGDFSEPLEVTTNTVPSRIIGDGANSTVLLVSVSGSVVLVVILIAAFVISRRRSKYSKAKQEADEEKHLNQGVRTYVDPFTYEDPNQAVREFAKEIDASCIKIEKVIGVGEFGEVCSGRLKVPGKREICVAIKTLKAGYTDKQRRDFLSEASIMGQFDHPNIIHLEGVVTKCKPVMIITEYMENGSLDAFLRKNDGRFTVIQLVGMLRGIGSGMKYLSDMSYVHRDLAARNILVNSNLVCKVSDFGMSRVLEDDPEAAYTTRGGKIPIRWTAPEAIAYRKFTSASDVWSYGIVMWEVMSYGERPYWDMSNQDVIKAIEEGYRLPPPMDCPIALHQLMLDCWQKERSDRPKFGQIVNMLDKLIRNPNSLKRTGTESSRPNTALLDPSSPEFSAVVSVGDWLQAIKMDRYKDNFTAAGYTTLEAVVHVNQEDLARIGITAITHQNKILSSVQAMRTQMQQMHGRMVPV
T5 sequence (O14757 whole entry): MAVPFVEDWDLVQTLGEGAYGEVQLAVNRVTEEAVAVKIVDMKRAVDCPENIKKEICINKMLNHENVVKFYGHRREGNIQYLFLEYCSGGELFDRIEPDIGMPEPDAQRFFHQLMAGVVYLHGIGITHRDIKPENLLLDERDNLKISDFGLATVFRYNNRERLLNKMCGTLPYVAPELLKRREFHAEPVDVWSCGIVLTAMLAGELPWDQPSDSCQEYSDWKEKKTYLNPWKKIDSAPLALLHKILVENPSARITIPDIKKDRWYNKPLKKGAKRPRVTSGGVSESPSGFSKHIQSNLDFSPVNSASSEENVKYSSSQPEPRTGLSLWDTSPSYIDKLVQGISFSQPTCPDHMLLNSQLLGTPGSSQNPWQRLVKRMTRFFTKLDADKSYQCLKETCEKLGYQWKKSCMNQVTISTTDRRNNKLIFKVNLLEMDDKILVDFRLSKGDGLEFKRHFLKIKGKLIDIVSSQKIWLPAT

**Q.** What does the source list for `Cc1cnc(N[C@H]2CC[C@H](N)CC2)nc1-c1cnc2ccc(-c3ccccc3)cn12` [CDDD11-8]?
**A.** remaining activity at 1 µM (ALK2/ACVR1): 121%; remaining activity at 1 µM (Aurora A): 79.3%; remaining activity at 1 µM (CDK4/cyclin D1): 89.3%; remaining activity at 1 µM (CDK5/p35): 84.5%; remaining activity at 1 µM (CHK1): 95.2%; remaining activity at 1 µM (CLK3): 85.9%; remaining activity at 1 µM (EPHA4): 101%; remaining activity at 1 µM (ERBB2/HER2): 101%; remaining activity at 1 µM (FGFR1): 96.8%; remaining activity at 1 µM (FLT3): 2.43%; remaining activity at 1 µM (IRR/INSRR): 101%; remaining activity at 1 µM (KSR1): 92.3%; remaining activity at 1 µM (MARK3): 37%; remaining activity at 1 µM (MSK1/RPS6KA5): 61.6%; remaining activity at 1 µM (MST2/STK3): 15%; remaining activity at 1 µM (NEK11): 100%; remaining activity at 1 µM (NEK6): 96.2%; remaining activity at 1 µM (PAK2): 96.7%; remaining activity at 1 µM (PAK6): 96.6%; remaining activity at 1 µM (RIPK5): 93%; remaining activity at 1 µM (RSK3): 45.6%; remaining activity at 1 µM (SGK1): 95.4%; remaining activity at 1 µM (SLK/STK2): 89.8%; remaining activity at 1 µM (SRPK1): 94%; remaining activity at 1 µM (SSTK/TSSK6): 79.1%; remaining activity at 1 µM (STK22D/TSSK1): 93.2%; remaining activity at 1 µM (STK25/YSK1): 97.2%; remaining activity at 1 µM (TLK2): 97.8%; remaining activity at 1 µM (TNIK): 4.38%; remaining activity at 1 µM (TRKB): 10.8%
